Data: the supplement of paper PMC10307832

Columns and labels:
Assay in all cases: relative viability (nuclei count vs DMSO), 5 days (fraction); higher = more cells survive
HCC-827 = tested on: HCC-827
Procedure, shortened: (§1)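 Lung cancer cell lines were seeded in 1536-well plates and dosed by pin tool the next day, with either a single drug or a fixed anchor-drug dose combined with five library-drug doses (not always all listed) spaced in √10 steps. Five days later, one step fixed the cells and stained their nuclei (final 0.05% Triton X-100, 1% formaldehyde, 1 ug/ml Hoechst), and nuclei were counted on 4× images. Relative viability is the nuclei count in treated wells divided by the count in vehicle wells, and each value is the median of duplicate plates.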

COR-L23 = tested on: COR-L23
Procedure, shortened: as §1

HCC-15 = tested on: HCC-15
Procedure, shortened: as §1

HCC-44 = tested on: HCC-44
Procedure, shortened: as §1

NCI-H596 = tested on: NCI-H596
Procedure, shortened: as §1

BEN = tested on: BEN
Procedure, shortened: as §1

NCI-H1650 = tested on: NCI-H1650
Procedure, shortened: as §1

NCI-H1975 = tested on: NCI-H1975
Procedure, shortened: as §1

NCI-H23 = tested on: NCI-H23
Procedure, shortened: as §1

NCI-H1666 = tested on: NCI-H1666
Procedure, shortened: as §1

A-427 = tested on: A-427
Procedure, shortened: as §1

NCI-H441 = tested on: NCI-H441
Procedure, shortened: as §1

EKVX = tested on: EKVX
Procedure, shortened: as §1

NCI-H1437 = tested on: NCI-H1437
Procedure, shortened: as §1

HARA = tested on: HARA
Procedure, shortened: as §1

SK-MES-1 = tested on: SK-MES-1
Procedure, shortened: as §1

NCI-H838 = tested on: NCI-H838
Procedure, shortened: as §1

201T = tested on: 201T
Procedure, shortened: as §1

NCI-H1792 = tested on: NCI-H1792
Procedure, shortened: as §1

O=c1cc(-c2cccc3c2Sc2ccccc2S3)oc(N2CCOCC2)c1 + CC1(C)CCC(c2ccc(Cl)cc2)=C(CN2CCN(c3ccc(C(=O)NS(=O)(=O)c4ccc(N[C@H](CCN5CCOCC5)CSc5ccccc5)c(S(=O)(=O)C(F)(F)F)c4)cc3)CC2)C1 [Navitoclax] (partner 0.5 µM)
relative viability (HCC-827; first compound 0.08 µM): 1.05 | relative viability (HCC-827; first compound 0.253 µM): 1.06 | relative viability (HCC-827; first compound 0.8 µM): 1.08 | relative viability (HCC-827; first compound 2.53 µM): 0.998 | relative viability (HCC-827; first compound 8 µM): 1.07 | relative viability (COR-L23; first compound 0.08 µM): 1.26 | relative viability (COR-L23; first compound 0.253 µM): 1.4 | relative viability (COR-L23; first compound 0.8 µM): 1.07 | relative viability (COR-L23; first compound 2.53 µM): 1.2 | relative viability (COR-L23; first compound 8 µM): 1.47 | relative viability (HCC-15; first compound 0.08 µM): 0.68 | relative viability (HCC-15; first compound 0.253 µM): 0.866 | relative viability (HCC-15; first compound 0.8 µM): 0.615 | relative viability (HCC-15; first compound 2.53 µM): 0.66 | relative viability (HCC-15; first compound 8 µM): 0.705 | relative viability (HCC-44; first compound 0.08 µM): 0.916 | relative viability (HCC-44; first compound 0.253 µM): 1.2 | relative viability (HCC-44; first compound 0.8 µM): 0.859 | relative viability (HCC-44; first compound 2.53 µM): 0.96 | relative viability (HCC-44; first compound 8 µM): 0.905 | relative viability (NCI-H596; first compound 0.08 µM): 0.843 | relative viability (NCI-H596; first compound 0.253 µM): 1.3 | relative viability (NCI-H596; first compound 0.8 µM): 1.09 | relative viability (NCI-H596; first compound 2.53 µM): 1.09 | relative viability (NCI-H596; first compound 8 µM): 1.14 | relative viability (BEN; first compound 0.08 µM): 0.0636 | relative viability (BEN; first compound 0.253 µM): 0.0609 | relative viability (BEN; first compound 0.8 µM): 0.0602 | relative viability (BEN; first compound 2.53 µM): 0.0598 | relative viability (BEN; first compound 8 µM): 0.0681 | relative viability (NCI-H1650; first compound 0.08 µM): 1.05 | relative viability (NCI-H1650; first compound 0.253 µM): 1.21 | relative viability (NCI-H1650; first compound 0.8 µM): 1.12 | relative viability (NCI-H1650; first compound 2.53 µM): 1.17 | relative viability (NCI-H1650; first compound 8 µM): 1.38 | relative viability (NCI-H1975; first compound 0.08 µM): 1.2 | relative viability (NCI-H1975; first compound 0.253 µM): 1.4 | relative viability (NCI-H1975; first compound 0.8 µM): 1.35 | relative viability (NCI-H1975; first compound 2.53 µM): 1.16 | relative viability (NCI-H1975; first compound 8 µM): 0.997 | relative viability (NCI-H23; first compound 0.08 µM): 0.829 | relative viability (NCI-H23; first compound 0.253 µM): 1.01 | relative viability (NCI-H23; first compound 0.8 µM): 0.879 | relative viability (NCI-H23; first compound 2.53 µM): 0.725 | relative viability (NCI-H23; first compound 8 µM): 0.884 | relative viability (NCI-H1666; first compound 0.08 µM): 0.988 | relative viability (NCI-H1666; first compound 0.253 µM): 0.976 | relative viability (NCI-H1666; first compound 0.8 µM): 0.952 | relative viability (NCI-H1666; first compound 2.53 µM): 0.868 | relative viability (NCI-H1666; first compound 8 µM): 0.799 | relative viability (A-427; first compound 0.08 µM): 0.962 | relative viability (A-427; first compound 0.253 µM): 0.909 | relative viability (A-427; first compound 0.8 µM): 1.07 | relative viability (A-427; first compound 2.53 µM): 0.906 | relative viability (A-427; first compound 8 µM): 0.934 | relative viability (NCI-H441; first compound 0.08 µM): 1.14 | relative viability (NCI-H441; first compound 0.253 µM): 0.909 | relative viability (NCI-H441; first compound 0.8 µM): 0.523 | relative viability (NCI-H441; first compound 2.53 µM): 0.776 | relative viability (NCI-H441; first compound 8 µM): 0.762 | relative viability (EKVX; first compound 0.08 µM): 0.975 | relative viability (EKVX; first compound 0.253 µM): 0.998 | relative viability (EKVX; first compound 0.8 µM): 0.888 | relative viability (EKVX; first compound 2.53 µM): 0.954 | relative viability (EKVX; first compound 8 µM): 0.965 | relative viability (NCI-H1437; first compound 0.08 µM): 1.08 | relative viability (NCI-H1437; first compound 0.253 µM): 1.58 | relative viability (NCI-H1437; first compound 0.8 µM): 1.09 | relative viability (NCI-H1437; first compound 2.53 µM): 1.11 | relative viability (NCI-H1437; first compound 8 µM): 1.39 | relative viability (HARA; first compound 0.08 µM): 1.16 | relative viability (HARA; first compound 0.253 µM): 1.36 | relative viability (HARA; first compound 0.8 µM): 1.01 | relative viability (HARA; first compound 2.53 µM): 1.11 | relative viability (HARA; first compound 8 µM): 1.2 | relative viability (SK-MES-1; first compound 0.08 µM): 1.1 | relative viability (SK-MES-1; first compound 0.253 µM): 1.54 | relative viability (SK-MES-1; first compound 0.8 µM): 1.2 | relative viability (SK-MES-1; first compound 2.53 µM): 1.17 | relative viability (SK-MES-1; first compound 8 µM): 1.24 | relative viability (NCI-H838; first compound 0.08 µM): 1.11 | relative viability (NCI-H838; first compound 0.253 µM): 1.64 | relative viability (NCI-H838; first compound 0.8 µM): 0.944 | relative viability (NCI-H838; first compound 2.53 µM): 1.02 | relative viability (NCI-H838; first compound 8 µM): 1.09 | relative viability (201T; first compound 0.08 µM): 1.15 | relative viability (201T; first compound 0.253 µM): 1.2 | relative viability (201T; first compound 0.8 µM): 1.23 | relative viability (201T; first compound 2.53 µM): 1.2 | relative viability (201T; first compound 8 µM): 1.15 | relative viability (NCI-H1792; first compound 0.253 µM): 0.761 | relative viability (NCI-H1792; first compound 0.8 µM): 0.471 | relative viability (NCI-H1792; first compound 2.53 µM): 0.555 | relative viability (NCI-H1792; first compound 8 µM): 0.689
